Patent publication US8575116B1, “Polyacetylenic compounds for protecting against pancreatic islet atrophy” (Academia Sinica, priority 2010, dated 2013)

Columns and labels:
db/db mice = assay: Glycosylated HbA1c in db/db mice after long-term treatment; format: in vivo, mouse
Method: FIGS. 1A-F show the anti-diabetic effects of cytopiloyne in db/db mice during long-term treatment. (A) Chemical structure of cytopiloyne (2-β-D-glucopyranosyloxy-1-hydroxytrideca-5,7,9,11-tetrayne). (B) Four groups of 6-to-8-week-old diabetic db/db mice were tube-fed with vehicle, cytopiloyne (CP, 0.5 and 2.5 mgkg^−1 day^−1) or glimepiride (GLM, 2.5 mgkg^−1 day^−1) from 0 to 42 days post-treatment. Blood glucose (BG) levels in these mice were measured. (C) Blood insulin levels from the mice of FIG. 1B. (D) IPGTT was performed in the db/db mice of FIG. 1B on day 0, 28 and 42, and blood glucose levels were monitored for 3.5 h. (E) The percentage of glycosylated HbAlc of whole blood from the mice of FIG. 1B on day 0 and 42. (F) Pancreata of 8- and 16-week-old db/db males, which had received the same treatment as FIG. 1B for 2 (images a-h) and 10 (images i-p) weeks, were stained with hematoxylin and eosin (H&E, images a, c, e, g, i, k, m and o) or hematoxylin and anti-insulin (H&I, images b, d, f, h, j, l, n and p). The arrowheads indicate pancreatic islets. Scale bars, 200 μm. Results from 3 independent experiments are expressed as mean±SEM, and P<0.05 was considered to be statistically significant (*). The number of mice (n) is indicated in parentheses.
After 0.5 h, the levels of postprandial blood sugar and insulin from the mice were monitored for additional 4 h. For continued administration, diabetic db/db males were grouped and tube-fed with vehicle, cytopiloyne (0.5 or 2.5 mgkg^−1 day^−1) or glimepiride (2.5 mg kg^−1 day^−1) for the indicated time, while levels of blood sugar, insulin, and glycosylated HbA1c, and glucose tolerance in these mice were determined. To evaluate the prophylaxis of diabetes, diabetes-free db/db mice at 4 weeks of age were tube-fed with vehicle or cytopiloyne (CP, 0.5 mgkg^−1), once a day, for 4 weeks. Unless indicated otherwise, the mice were fasted for 16 h, then Postprandial blood glucose and insulin in these mice were measured.
Glucose levels in mouse blood samples were measured using an Elite® glucometer (Bayer, Pittsburgh, Pa., USA). Insulin levels in blood samples or islet cell supernatants were determined by ELISA assays (Mercodia, Uppsala, Sweden). The levels of glycosylated HbA1c in mouse blood samples were measured using DCA 2000 analyzer (Bayer, Pittsburgh, Pa., USA).

RIN-m5F cells = assay: DAG and cholesterol generation (3H-myristic acid, TLC) in RIN-m5F cells; format: cell-based, rat; details: for level of DAG: versus vehicle control, glucose 16.7 mM
Method: FIGS. 5A-D show the effects of cytopiloyne on calcium mobilization, DAG generation and PKCa activation. (A) After Fura 2-AM loading, RIN-m5F cells were stimulated with 16.7 mM glucose (HG) and cytopiloyne at 7, 14 and 28 μM. Level of intracellular calcium, as shown by the 340/380 nm ratio, was detected using a fluorescence spectrophotometer. (B) RIN-m5F cells were pulsed with ^3H-myristic acid (5 Cim1^−1) for 16 hours. After washing, the cells were stimulated with glucose, cytopiloyne, PMA and glimepiride. Total lipids were separated on a silica thin layer plate. DAG and cholesterol were visualized with iodine vapor and identified by their standards. (C) RIN-m5F cells were incubated with vehicle (Mock), cytopiloyne (CP, 3, 7 and 14 μM), PMA (1 μM) and 16.7 mM (HG). Membrane or cytosolic proteins were subjected to Western blot with anti-PKCα and anti-Actin antibodies. (D) RIN-m5F cells were incubated with vehicle (Mock), cytopiloyne (CP 7 μM) and PMA (1 μM). After lysis, total lystaes were subjected to Western blot with anti-PKCα, anti-phospho-PKCα and anti-Actin antibodies.
RIN-m5F cells were incubated with ^3H-myristic acid ([…]) for 16 hours. After washing, the cells were treated with glucose, cytopiloyne, PMA and glimepiride. Total lipids were extracted as previously described. Radioactive DAG was separated on a silica thin layer plate with the first developer of ethylacetate: acetic acid: triethylpentane (9:2:5) and the second developer of hexane: diethylether: methanol: acetic acid (90:20:3:2). The spot of DAG was visualized with iodine vapor and identified by DAG standard.

[1] = test system: human insulin promoter in HIT-T15 β-cells; assay: Insulin promoter (phINS-Luc) dual luciferase assay in HIT-T15 β-cells; format: cell-based, rat
Method: FIGS. 4A-C show an increase in insulin mRNA and protein content by cytopiloyne in pancreatic islet cells. (A) HIT-T15 β-cells transfected with phINS-Luc and pRL-TK plasmids were incubated with vehicle (NS), glimepiride (GLM, 10 μM), high glucose (HG, 16.7 mM) or cytopiloyne at 7, 14 or 28 μM. Ten μg of cell lysates from these cells underwent to dual luciferase assays. […] (C) Rat pancreatic islet cells were treated with vehicle, glucose (3.3 mM (LG) or 16.7 mM (HG)) or cytopiloyne (CP, 7, 14 and 28 μM) in the presence of brefeldin A for 24 h. After anti-insulin antibody staining, these cells underwent FACS analysis. The percentage of insulin-positive β-cells is shown. All the results from 3 independent experiments are expressed as mean±SEM, and P<0.05 was considered to be statistically significant (*).
(A) RIN-M5F cells were grown in medium with 16.7 mM (HG) or 3.3 mM glucose (LG) in the presence of PMA. GF and cytopiloyne. The insulin level of the supernatants was determined using an ELISA kit. (B) RIN-M5F cells were transfected with 5 μg of dominant-negative PKCα or control plasmid grown in medium with 16.7 mM (HG) or 3.3 mM glucose (LG) in the presence of PMA (1 μM), GF109203X (3 μM) or cytopiloyne. The insulin level of the supernatants was determined using an ELISA kit. (C) HIT-T15 cells were transfected with phINS-Luc and pRL-TK plasmids. The cells were grown in medium with 16.7 mM (HG) or 3.3 mM glucose (LG) in the absence or presence of PMA, GF109203X and cytopiloyne. The cell lysates were subjected to dual luciferase assays. (D) HIT-T15 cells were transfected with vehicle or dominant-negative PKCα plasmid together with phINS-Luc and pRL-TK plasmids. The cells were grown in medium with 16.7 mM (HG) or 3.3 mM glucose (LG) in the absence or presence of PMA and cytopiloyne. The cell lysates were subjected to dual luciferase assays.
Plasmids phINS-Luc and pRL-TK contain a human insulin promoter (2347 bp) from phINS-DCR3 vector linked to a firefly luciferase gene and the thymidine kinase promoter linked to Renilla luciferase reporter gene, respectively. Dominant-negative PKCα, phINS-Luc and/or pRL-TK were transfected into HIT-T15 cells with lipofectamine or electroporation.

[2] = 2.5 mgkg^−1 day^−1, day 42, db/db mice 12 to 14 weeks of age (untreated 7.3%)
[3] = 2.5 mgkg^−1 day^−1, versus untreated db/db mice

| Compound | HbA1c glycosylated in the blood (db/db mice; [2]) [%] | decrease of glycosylated HbA1c (db/db mice; [3]) [%] | level of DAG (RIN-m5F cells) | insulin transcription (reporter) compared to the control ([1]; 10 μM, HIT-T15 β-cells, 24 h) | HbA1c glycosylated in the blood (db/db mice; 0.5 mgkg^−1 day^−1, day 42, db/db mice 12 to 14 weeks of age (untreated 7.3%)) [%] | decrease of glycosylated HbA1c (db/db mice; 0.5 mgkg^−1 day^−1, versus untreated db/db mice) [%] | level of cholesterol (RIN-m5F cells) | insulin transcription (reporter), fold increase ([1]; 28 μM, HIT-T15 β-cells, 24 h) [times] | insulin transcription in HIT-T15 cells ([1]; FIG. 6C, glucose 16.7 mM) |
| --- | --- | --- | --- | --- | --- | --- | --- | --- | --- |
| CCC1=C(C)CN(C(=O)NCCc2ccc(S(=O)(=O)NC(=O)N[C@H]3CC[C@H](C)CC3)cc2)C1=O [glimepiride, reference compound] | 6.3 | 1 | significantly increased the level of DAG | no significant effect on insulin transcription |  |  |  |  |  |
| CC#CC#CC#CC#CCCC(CO)O[C@@H]1O[C@H](CO)[C@@H](O)[C@H](O)[C@H]1O (stereo partly drawn) [cytopiloyne, 2-β-D-glucopyranosyloxy-1-hydroxytrideca-5,7,9,11-tetrayne] | 5.6 | 1.7 | dose-dependently increased the level of DAG |  | 6 | 1.3 | not cholesterol | 5 | stimulated insulin transcription |
